Data taken from publication PMC7142633, “Impact of B-Ring Substitution and Acylation with Hydroxy Cinnamic Acids on the Inhibition of Porcine α-Amylase by Anthocyanin-3-Glycosides” (Foods, 2020).
Read-outs that look alike come from different tables or passages of the source. Marks after values point to notes of the source that are not given here.

Experiments:
[1] = target: T1, α-amylase from porcine pancreas (Sus scrofa, UniProt P00690); assay: α-amylase enzyme activity assay, GalG2CNP conversion, UV/Vis detection of CNP at 405 nm; format: biochemical; settings: for IC50: read-out: IC50 (Cheng−Prussoff, Equation (9)); for Kmapp / vmaxapp: Michaelis Menten fit
T1 construct: A saline suspension of α-amylase from porcine pancreas; purchased Sigma Aldrich (Steinheim, Germany) Lot #SLBN9170V (catalogue number not given); host or cells: porcine pancreas (tissue-derived)
T1 sequence (P00690 16-511): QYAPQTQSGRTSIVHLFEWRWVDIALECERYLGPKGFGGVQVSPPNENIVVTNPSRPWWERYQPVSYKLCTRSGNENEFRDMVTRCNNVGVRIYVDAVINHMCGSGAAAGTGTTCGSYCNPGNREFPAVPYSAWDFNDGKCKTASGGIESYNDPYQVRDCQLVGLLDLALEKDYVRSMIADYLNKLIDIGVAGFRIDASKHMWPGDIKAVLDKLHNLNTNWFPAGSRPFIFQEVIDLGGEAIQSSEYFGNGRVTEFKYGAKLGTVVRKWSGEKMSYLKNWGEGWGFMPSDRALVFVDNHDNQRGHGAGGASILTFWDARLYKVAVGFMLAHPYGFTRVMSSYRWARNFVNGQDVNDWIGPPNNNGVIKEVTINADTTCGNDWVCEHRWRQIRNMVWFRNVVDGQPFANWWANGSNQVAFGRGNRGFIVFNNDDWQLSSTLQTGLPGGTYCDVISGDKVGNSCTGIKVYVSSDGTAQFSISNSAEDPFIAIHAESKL
Experimental: The enzyme activity assay, […], was established by Homoki and co-workers and already used by the authors to evaluate the inhibitory strength of different phenolic structures. To enable the evaluation of the result obtained in the present study compared to the non-anthocyanin phenolics investigated previously, the assay conditions were identical. In short, to 12 different GalG2CNP concentrations ([S] = 0−2000 µM) in MES^+ buffer, inhibitor [I] and 50 µL enzyme solution (c = 1.51 units/~100 pM, on the basis of supplier information) were mixed in a microtiter plate (Greiner BioOne, Frickenhausen, Germany; transparent, F-bottom). For blanks, the enzyme solution was substituted with MES^+ buffer. The final volume per well was 250 µL. To quantify the reaction product, a linear calibration with eight different CNP concentrations in the range of 0−35 µM was performed for each plate. Dilutions of the anthocyanin stock solutions (0.1% HCl) were equilibrated at pH 6.1 for one hour. Final inhibitor concentrations were limited due to its strong absorption at 405 nm to 12.5, 25, and 50 µM. For each anthocyanin structure, the assay was conducted on two to three different days with freshly prepared stocks of substrate, enzyme, and inhibitor.
In addition to the Michaelis Menten constant (Km) and the maximal conversion rate (vmax) values (Table S1), inhibition constants (Kic, Kiu) were calculated by fitting the data by two approaches: (i) According to the mixed inhibition equation (Equation (4)) or competitive inhibition equation (Equation (5)), applying an optimal global fit containing data from all inhibitor concentrations including the control ([I] = 0 µM); and (ii) by an independent fit according to the Michaelis Menten equation (Equation (6)), providing the apparent values Km^app and Vmax^app (Table S2) for each inhibitor concentration, which were then used to calculate the inhibition constants (Equations (7) and (8)). (4) v0= vmax/Km/[S] · (1+[I]/Kic)+(1+[I]/Kiu), (5) v0=vmax/Km/[S] · ( 1+[I]/Kic)+1, (6) v0=vmax · [S]/Km+[S], (7) Kic=vmax^app/Km^app · [I]/vmax/Km−vmax^app/Km^app, (8) Kiu=vmax^app · [I]/vmax− vmax^app.
The IC50 values of the different anthocyanins were derived from the inhibition constants for different substrate concentrations by the Cheng−Prusoff equation (Equation (9)). (9) IC50=(Km+[S])/Km/Kic+[S]/Kiu.
• KM: Michaelis Menten constant (µM) • vmax: Maximal conversion rate of the uninhibited reaction (µM/min) • v0: Observed conversion rate at given substrate and inhibitor concentration (µM/min) • [S]: Substrate concentration • [I]: Inhibitor concentration • Kic: Inhibitor constant, reflecting the competitive inhibition in the equation (µM) • Kiu: Inhibitor constant, reflecting the uncompetitive inhibition in the equation (µM) • vmax^app: Calculated maximal conversion rate, when the Michaelis Menten equation is used on an inhibited curve (µM/min) • Km^app: Calculated Michaelis Menten constant, when the Michaelis Menten equation is used on an inhibited curve (µM) • IC50: Half maximal inhibitory concentration (inhibitor concentration needed to achieve 50% inhibition; it is dependent on the substrate concentration) (µM)
For data analyses and calculations, Origin 2018b (OriginLab, software extension Enzyme Kinetics) was used. The Levenberg−Marquardt algorithm procedure was chosen for iteration. All assays were performed in two independent replicates at different dates. Values are expressed in arithmetic means ± average deviation (AD). The statistical significance and differences between groups were analyzed by one-way analysis of variance (ANOVA), followed by Tukey’s test. Differences were considered significant when p < 0.05. Data were processed using Microsoft Excel® (2010).

[2] = target: T1, α-amylase from porcine pancreas; assay: Isothermal titration calorimetry, single injection, GalG2CNP conversion; format: biochemical; settings: 100 µM inhibitor, 0.95 mM substrate, 37 °C
Experimental: To evaluate the inhibitory strength of 100 µM anthocyanin-3-glucosides and black carrot anthocyanins, GalG2CNP conversion to CNP was monitored by the released heat. According to the previous study, ITC measurements were carried out in a single injection experiment set-up on a MICROCALTM PEAQ-ITC calorimeter (S/N MAL1188053, Malvern Panalytical Almelo, Netherlands). Following an equilibration time of 10 min, 1 µL α-amylase (1 µM in 50 mM MES^+ buffer) was added to 0.95 mM of the substrate with or without 100 µM of the phenolic inhibitor in the cell (Vcell = 0.207 mL). The temperature was maintained at 37 °C and the sample was stirred at 750 rpm throughout. The feedback/gain mode was set to high. The resulting heat profile was transformed and the conversion rate was plotted against the substrate concentration [S] by an origin routine template provided by Malvern® for Origin version 7.

[3] = aqueous solution; cited from earlier work
human salivary α-amylase = target: human salivary α-amylase; set-up: method as in PMID 26471548; settings: cited from earlier work
[4] = target: porcine pancreatic α-amylase; set-up: method as in doi:10.1016/j.jff.2015.11.042; settings: cited from earlier work
[5] = (i) Kic and Kiu by global fit, [S] 10 µM
[6] = (i) Kic and Kiu by global fit, [S] 100 µM
[7] = (i) Kic and Kiu by global fit, [S] 10^3 µM
[8] = (i) global fit, mixed inhibition Equation (4), read-out: Kic
[9] = (i) global fit, mixed inhibition Equation (4), read-out: Kiu
[10] = (ii) Kic and Kiu by independent fit, [S] 10 µM
[11] = (ii) Kic and Kiu by independent fit, [S] 100 µM
[12] = (ii) Kic and Kiu by independent fit, [S] 10^3 µM
[13] = (ii) Kic and Kiu by independent fit, [S] 10^6 µM
[14] = (ii) independent Michaelis Menten fit (Equation (6)), calculation by Equation (7), read-out: Kic
[15] = (ii) independent Michaelis Menten fit (Equation (6)), calculation by Equation (8), read-out: Kiu
[16] = (ii) independent fit, Equations (7) and (8)
[17] = from apparent values, inhibitor c 25 µM, read-out: Kic
[18] = from apparent values, inhibitor c 25 µM, read-out: Kiu
[19] = from apparent values, inhibitor c 50 µM, read-out: Kic
[20] = from apparent values, inhibitor c 50 µM, read-out: Kiu
[21] = from apparent values, inhibitor c 12,5 µM, read-out: Kic
[22] = from apparent values, inhibitor c 12,5 µM, read-out: Kiu
[23] = (i) Kic and Kiu by global fit, [S] 10^6 µM

Row | SMILES | IC50 [1, 5] | IC50 [1, 6] | IC50 [1, 7] | Kic/Kiu ([1]; (i) global fit, Equation (4)) | Ki [1, 8] | Ki [1, 9] | IC50 [1, 10] | IC50 [1, 11] | IC50 [1, 12] | IC50 [1, 13] | Ki [1, 14] | Ki [1, 15] | Kic/Kiu [1, 16] | Kmapp ([1]; inhibitor c 25 µM) | vmaxapp ([1]; inhibitor c 25 µM) | Kmapp ([1]; inhibitor c 50 µM) | vmaxapp ([1]; inhibitor c 50 µM) | Kmapp ([1]; inhibitor c 12,5 µM) | vmaxapp ([1]; inhibitor c 12,5 µM) | Ki [1, 17] | other results
1 | OC[C@H]1O[C@@H](Oc2cc3c(O)cc(O)cc3[o+]c2-c2cc(O)c(O)c(O)c2)[C@H](O)[C@@H](O)[C@@H]1O [Dpd-glc, delphinidin-3-glucoside] | 64 ± 25 µM | 77 ± 25 µM | 134 ± 1 µM | 0.34 ± 0.24 ^a | 62 ± 25 µM | 204 ± 68 µM | 65 ± 20 µM | 83 ± 24 µM | 167 ± 20 µM | 270 ± 32 µM | 63 ± 19 µM | 270 ± 33 µM | 0.26 ± 0.13 ^a | 273 ± 52 µM | 0,79 ± 0,09 µM/min | 335 ± 129 µM | 0,69 ± 0,03 µM/min | 247 ± 33 µM | 0,84 ± 0,10 µM/min | 63 ± 17 µM | Ki [1, 18]: 233 ± 25 µM; Ki [1, 19]: 60 ± 27 µM; Ki [1, 20]: 212 ± 87 µM; Ki [1, 21]: 66 ± 14 µM; Ki [1, 22]: 364 ± 13 µM; Ki ([1]; mean over inhibitor c 12,5, 25, 50 µM (Supplementary 2), read-out: Kic mean ± SD): 63 ± 3 µM; inhibitory strength by ITC (thermogram, Michaelis Menten plot) [2]: Mlv-3-glc > Cyd-3-glc > Dpd-3-glc~Peo-3-glc; pKH [3]: 2.36 ± 0.05
2 | OC[C@H]1O[C@@H](Oc2cc3c(O)cc(O)cc3[o+]c2-c2ccc(O)c(O)c2)[C@H](O)[C@@H](O)[C@@H]1O [Cyd-glc, cyanidin-3-glucoside] | 83 ± 11 µM | 97 ± 15 µM | 147 ± 36 µM | 0.45 ± 0.08 ***^a | 81 ± 10 µM | 184 ± 56 µM | 137 µM | 153 µM | 201 µM | 228 µM | 134 µM | 228 µM | 0.56 *^a | 285 µM | 0,74 ± 0,26 µM/min | 300 µM | 0,69 ± 0,21 µM/min | 244 µM | 0,79 ± 0,23 µM/min | 64 µM | IC50 [1, 23]: 184 ± 56 µM; Ki [1, 18]: 141 µM; Ki [1, 19]: 103 µM; Ki [1, 20]: 250 µM; Ki [1, 21]: 236 µM; Ki [1, 22]: 146 µM; Ki ([1]; mean over inhibitor c 12,5, 25, 50 µM (Supplementary 2), read-out: Kiu mean ± SD): 179 ± 62 µM; IC50 (human salivary α-amylase): 180 ± 20 µM; inhibition type (human salivary α-amylase): competitive inhibition type; IC50 [4]: 24 ± 3 µM; inhibition type [4]: competitive inhibition type; pKH [3]: 3.02 ± 0.06
3 | OC[C@H]1O[C@@H](Oc2cc3c(O)cc(O)cc3[o+]c2-c2ccc(O)cc2)[C@H](O)[C@@H](O)[C@@H]1O [Plg-glc, pelargonidin-3-glucoside] | 58 ± 15 µM | 71 ± 20 µM | 117 ± 41 µM | 0.39 ± 0.05 ^a | 57 ± 15 µM | 151 ± 59 µM | 71 ± 2 µM | 84 ± 7 µM | 127 ± 31 µM | 158 ± 53 µM | 69 ± 1 µM | 158 ± 53 µM | 0.46 ± 0.13 ^a | 258 ± 13 µM | 0,58 ± 0,22 µM/min | 325 ± 42 µM | 0,53 ± 0,23 µM/min | 235 ± 2 µM | 0,65 ± 0,23 µM/min | 62 ± 7 µM | IC50 [1, 23]: 151 ± 59 µM; Ki [1, 18]: 126 ± 30 µM; Ki [1, 19]: 55 ± 19 µM; Ki [1, 20]: 163 ± 64 µM; Ki [1, 21]: 91 ± 22 µM; Ki [1, 22]: 187 ± 64 µM; pKH [3]: 2.98 ± 0.06
